# Laboratory results as given in patent publication US20130196986A1 (priority 2010, published 2013).
# Target: T1, P2X7 receptor (Homo sapiens, UniProt Q99572)
# T1 construct: stably expressing the full length P2X7 receptor; expressed in transfected cells
# T1 sequence (Q99572 1-595): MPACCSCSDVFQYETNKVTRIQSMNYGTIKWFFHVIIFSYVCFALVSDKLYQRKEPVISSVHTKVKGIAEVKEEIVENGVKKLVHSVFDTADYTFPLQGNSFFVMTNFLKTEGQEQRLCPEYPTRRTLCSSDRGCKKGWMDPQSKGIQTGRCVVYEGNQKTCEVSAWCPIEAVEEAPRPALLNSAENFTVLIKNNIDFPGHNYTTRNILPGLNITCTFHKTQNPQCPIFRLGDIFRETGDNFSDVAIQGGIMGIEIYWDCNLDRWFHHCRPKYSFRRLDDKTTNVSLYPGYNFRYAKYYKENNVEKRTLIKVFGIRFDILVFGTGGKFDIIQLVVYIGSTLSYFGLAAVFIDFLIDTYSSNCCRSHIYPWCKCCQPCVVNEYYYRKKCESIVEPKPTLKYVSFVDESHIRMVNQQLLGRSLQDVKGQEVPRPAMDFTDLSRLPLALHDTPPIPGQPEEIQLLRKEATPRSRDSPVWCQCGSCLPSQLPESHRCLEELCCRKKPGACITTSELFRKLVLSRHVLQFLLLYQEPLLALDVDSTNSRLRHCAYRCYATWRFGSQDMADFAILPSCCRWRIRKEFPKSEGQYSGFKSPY
# Experiment: Ca++ flux assay (FLIPR) in P2X7-HEK-293 cell line stably expressing the full length P2X7 receptor, Bz-ATP activation
# Format: cell-based
# Conditions: P2X7-HEK-293 cells; agonist Bz-ATP; fluorescence as total area over 90 seconds; read-out: P2X7 Ca Flux hu IC50
# Method: The ability of Triazolopyrazinone Compounds to inhibit P2X7 function can be determined in Ca^++ flux assay using a P2X7-HEK-293 cell line stably expressing the full length P2X7 receptor. The assay protocol is as described in Cheewatrakoolpong et al., Biochem. Biophys. Res. Commun. 332:17-27 (2005) with minor modification, and is as summarized hereinafter. Briefly, cells were plated in poly-D-lysine-coated wells, and incubated at 37° C. for 24 hours. Cells were then incubated for 1 hour with a loading buffer which contains a dye sensitive to changes in Ca^++ concentration (lx Calcium Plus no wash dye from Molecular Devices, Sunnyvale, Calif.). The test compounds were added to the wells in the dye loading step. Plates containing the wells were transferred to a Fluorometric Imaging Plate Reader (Molecular Devices, Sunnyvale, Calif.). The cells were activated by the addition of the P2X7 receptor agonist 2′(3) —O-(4-benzoylbenzoyl)adenosine 5′-triphosphate (Bz-ATP from Sigma-Aldrich, St. Louis, Mo.), and the fluorescence was monitored for 90 seconds. The fluorescent signal was determined as the total area over the 90 second run time. Using this protocol, representative Triazolopyrazinone Compounds, compounds 1471 were tested. Tables 3 to 6 show the concentration at which 50% of the maximum response in the Ca^++ was inhibited (IC50) for each of the test compounds.
row,SMILES,IC50 [nM]
1,"Cc1c(Cl)cccc1-n1ccn2c(SCc3cccc(Cl)c3Cl)nnc2c1=O [Compound 66, 7-(3-chloro-2-methylphenyl)-3-(2,3-dichlorobenzylthio)-[1,2,4]triazolo[4,3-a]pyrazin-8(7H)-one]",324
2,"O=c1c2nnc(SCc3ccccc3)n2ccn1-c1cccc(F)c1Cl [Compound 65, 3-(benzylthio)-7-(2-chloro-3-fluorophenyl)-[1,2,4]triazolo[4,3-a]pyrazin-8(7H)-one]",189
3,"Cc1c(Cl)cccc1-n1ccn2c(SCc3ccc4ccccc4c3)nnc2c1=O [Compound 97, 7-(3-chloro-2-methylphenyl)-3-(naphthalen-2-ylmethylthio)-[1,2,4]triazolo[4,3-a]pyrazin-8(7H)-one]",2310
4,"Cc1c(Cl)cccc1-n1ccn2c(SCCc3ccccc3)nnc2c1=O [Compound 112, 7-(3-chloro-2-methylphenyl)-3-(phenethylthio)-[1,2,4]triazolo[4,3-a]pyrazin-8(7H)-one]",660
5,"O=c1c2nnc(SCc3ccccc3)n2ccn1-c1ccccc1Cl [Compound 81, 3-(benzylthio)-7-(2-chlorophenyl)-[1,2,4]triazolo[4,3-a]pyrazin-8(7H)-one]",946
6,"Cc1c(-n2ccn3c(SC(C)c4ccccc4)nnc3c2=O)cccc1C(F)(F)F (stereo not drawn) [Compound 62, 7-(2-methyl-3-(trifluoromethyl)phenyl)-3-(1-phenylethylthio)-[1,2,4]triazolo[4,3-a]pyrazin-8(7H)-one]",57.5
7,"Cc1ccccc1CSc1nnc2c(=O)n(-c3cccc(C(F)(F)F)c3Cl)ccn12 [Compound 47, 7-(2-chloro-3-(trifluorornethyl)phenyl)-3-(2-methylbenzylthio)-[1,2,4]triazolo[4,3-a]pyrazin-8(7H)-one]",41.8
8,"O=c1c2nnc(SCc3ccccc3)n2ccn1-c1ccc(Cl)c(Cl)c1 [Compound 100, 3-(benzylthio)-7-(3,4-dichlorophenyl)-[1,2,4]triazolo[4,3-a]pyrazin-8(7H)-one]",3920
9,"Cc1c(-n2ccn3c(S(=O)(=O)Cc4ccc(Cl)s4)nnc3c2=O)cccc1C(F)(F)F [Compound 132, 3-((5-chlorothiophen-2-yl)methylsulfonyl)-7-(2-methyl-3-(trifluoromethyl)phenyl)-[1,2,4]triazolo[4,3-a]pyrazin-8(7H)-one]",17.9
10,"Cc1c(-n2ccn3c(SCc4cccs4)nnc3c2=O)cccc1C(F)(F)F [Compound 15, 7-(2-methyl-3-(trifluoromethyl)phenyl)-3-(thiophen-2-ylmethylthio)-[1,2,4]triazolo[4,3-a]pyrazin-8(7H)-one]",30.4
11,"Cc1c(-n2ccn3c(SCc4ccccc4-c4cccs4)nnc3c2=O)cccc1C(F)(F)F [Compound 23, 7-(2-methyl-3-(trifluoromethyl)phenyl)-3-(2-(thiophen-2-yl)benzylthio)-[1,2,4]triazolo[4,3-a]pyrazin-8(7H)-one]",40.4
12,"Cc1c(Cl)cccc1-n1ccn2c(SCc3cccc(Cl)c3F)nnc2c1=O [Compound 63, 3-(3-chloro-2-fluorobenzylthio)-7-(3-chloro-2-methylphenyl)-[1,2,4]triazolo[4,3-a]pyrazin-8(7H)-one]",2540
13,"Cc1c(Cl)cccc1-n1ccn2c(SCc3cc(C(F)(F)F)cc(C(F)(F)F)c3)nnc2c1=O [Compound 88, 3-(3,5-bis(trifluoromethyl)benzylthio)-7-(3-chloro-2-methylphenyl)-[1,2,4]triazolo[4,3-a]pyrazin-8(7H)-one]",8370

# Further compounds by falling IC50, results first:
row,IC50 [nM],SMILES
1,2340,"Cc1c(Cl)cccc1-n1ccn2c(SCc3ccccn3)nnc2c1=O [Compound 98, 7-(3-chloro-2-methylphenyl)-3-(pyridin-2-ylmethylthio)-[1,2,4]thazolo[4,3-a]pyrazin-8(7H)-one]"
2,1170,"Cc1c(Cl)cccc1-n1ccn2c(SCc3ccccc3N3CCN(C(=O)OC(C)(C)C)CC3)nnc2c1=O [Compound 31, tert-butyl 4-(2-((7-(3-chloro-2-methylphenyl)-8-oxo-7,8-dihydro-[1,2,4]triazolo[4,3-a]pyrazin-3-ylthio)methyl)phenyl)piperazine-1-carboxylate]"
3,905,"Cc1c(-n2ccn3c(SCc4ccccc4-c4ccc(C(F)(F)F)cc4)nnc3c2=O)cccc1C(F)(F)F [Compound 8, 7-(2-methyl-3-(trifluoromethyl)phenyl)-3-((4′-(trifluoromethyl)biphenyl-2-yl)rnethylthio)-[1,2,4]triazolo[4,3-a]pyrazin-8(7H)-one]"
4,697,"Cc1c(Cl)cccc1-n1ccn2c(SCc3cc(F)cc(F)c3)nnc2c1=O [Compound 114, 7-(3-chloro-2-methylphenyl)-3-(3,5-difluorobenzylthio)-[1,2,4]triazolo[4,3-a]pyrazin-8(7H)-one]"
5,597,"Cc1c(Cl)cccc1-n1ccn2c(SCc3cc(Cl)cc(C(F)(F)F)c3)nnc2c1=O [Compound 78, 7-(3-chloro-2-methylphenyl)-3-(3-chloro-5-(trifluoromethyl)benzylthio)-[1,2,4]triazolo[4,3-a]pyrazin-8(7H)-one]"
6,515,"Cc1c(Cl)cccc1-n1ccn2c(SCc3ccccc3C(F)(F)F)nnc2c1=O [Compound 111, 7-(3-chloro-2-methylphenyl)-3-(2-(trifluoromethyl)benzylthio)-[1,2,4]triazolo[4,3-a]pyrazin-8(7H)-one]"
7,439,"Cc1cccc(CSc2nnc3c(=O)n(-c4cccc(Cl)c4C)ccn23)c1 [Compound 73, 7-(3-chloro-2-methylphenyl)-3-(3-methylbenzylthio)-[1,2,4]triazolo[4,3-a]pyrazin-8(7H)-one]"
8,233,"Cc1c(Cl)cccc1-n1ccn2c(SCc3ccccc3CS(=O)(=O)c3ccccc3)nnc2c1=O [Compound 43, 7-(3-chloro-2-methylphenyl)-3-(2-(phenylsulfonylmethyl)benzylthio)-[1,2,4]triazolo[4,3-a]pyrazin-8(7H)-one]"
9,189,"Cc1c(Cl)cccc1-n1ccn2c(S(=O)(=O)Cc3ccccc3N3CCOCC3)nnc2c1=O [Compound 158, 7-(3-chloro-2-methylphenyl)-3-(2-morpholinobenzylsulfonyl)-[1,2,4]triazolo[4,3-a]pyrazin-8(7H)-one]"
10,167,"Cc1c(Cl)cccc1-n1ccn2c(SCc3cc(Cl)cc(Cl)c3)nnc2c1=O [Compound 101, 7-(3-chloro-2-methylphenyl)-3-(3,5-dichlorobenzylthio)-[1,2,4]triazolo[4,3-a]pyrazin-8(7H)-one]"
11,97.4,"Cc1c(Cl)cccc1-n1ccn2c(SCc3ccccc3-c3ccco3)nnc2c1=O [Compound 37, 7-(3-chloro-2-methylphenyl)-3-(2-(furan-2-yl)benzylthio)-[1,2,4]triazolo[4,3-a]pyrazin-8(7H)-one]"
12,47,"O=c1c2nnc(SC3c4ccccc4-c4ccccc43)n2ccn1-c1cccc(C(F)(F)F)c1Cl [Compound 26, 3-(9H-fluoren-9-ylthio)-7-(2-chloro-3-(trifluoromethyl)phenyl)-[1,2,4]triazolo[4,3-a]pyrazin-8(7H)-one]"
13,46.2,"Cc1c(-n2ccn3c(S(=O)(=O)Cc4ccccc4-c4cccs4)nnc3c2=O)cccc1C(F)(F)F [Compound 143, 7-(2-methyl-3-(trifluoromethyl)phenyl)-3-(2-(thiophen-2-yl)benzylsulfonyl)-[1,2,4]triazolo[4,3-a]pyrazin-8(7H)-one]"
14,21.4,"Cc1c(-n2ccn3c(S(=O)(=O)Cc4ccccc4I)nnc3c2=O)cccc1C(F)(F)F [Compound 133, 3-(2-iodobenzylsulfonyl)-7-(2-methyl-3-(trifluoromethyl)phenyl)-[1,2,4]triazolo[4,3-a]pyrazin-8(7H)-one]"
15,16.9,"Cc1c(Cl)cccc1-n1ccn2c(S(=O)(=O)Cc3ccccc3Br)nnc2c1=O [Compound 128, 3-(2-bromobenzylsulfonyl)-7-(3-chloro-2-methylphenyl)-[1,2,4]triazolo[4,3-a]pyrazin-8(7H)-one]"
16,15.9,Cc1c(-n2ccn3c(S(=O)(=O)Cc4ccccc4-c4ccccc4)nnc3c2=O)cccc1C(F)(F)F [Compound 126]
17,14.6,"Cc1c(-n2ccn3c(S(=O)(=O)Cc4cccc(F)c4Cl)nnc3c2=O)cccc1C(F)(F)F [Compound 124, 3-(2-chloro-3-fluorobenzylsulfonyl)-7-(2-methyl-3-(trifluoromethyl)phenyl)-[1,2,4]triazolo[4,3-a]pyrazin-8(7H)-one]"
